Values after ≈ are worked out from the molar mass of the structure shown.
What was measured:
[1] = Isoelectric point (pI) by isoelectrofocusing with bioautography detection; assay type: physicochemical; details: IEF technique, polyacrylamide gel
Source text: The isoelectrofocusing (IEF) technique coupled with bioautography detection has been used for the determination of the pI of representative compounds of the invention using the following materials: AMPHOLINE carrier ampholytes (40% w/v) were purchased from LKB Produketer AB, Bromma, Sweden. Acrylamide, N,N'-methylenbisacrylamide (BIS), N,N,N',N'-tetramethylethylenediamine (TEMED) and ammonium persulfate were from Bio Rad Laboratorie, Richmond, Calif., USA. Glycerol and Antibiotic agar N. 1 (Grove and Randall medium N. 1) were from E. Merck Darmstadt FRG. GEL FIX polyester sheets were purchased from Serva Feinbiochemica Heidelberg. Phenolindo (2,6-dichlorophenol) came from BDH Chemicals Ltd. Poole, England.
IEF was made on gel slab using a LKB MULITPHOR 2117 cell and a Bio-Rad Power Supply Model 1420A. Slabs of 24.5×11.5 cm and 1 mm thickness were prepared on a sheet of GEL FIX. Polyacrylamide gels with a concentration of 8% T and with a cross-linkage of 4% C (30% T stock solution was prepared by dissolving 28.8 g of acrylamide and 1.2 g of bis-acrylamide in 100 ml distilled water), glycerol, 3.5% v/v, 2% AMPHOLINE, 0.05% ammonium persulphate as catalyst and 0.05% TEMED as accelerator. The carrier ampholite composition for 35 ml gelling solution was as follows:
The electrode solutions, as recommended by LKB for the respective pH range, were:
The gel was cooled to 4° C. with the aid of a LKB 2209 refrigerated constant temperature circulator. After prefocusing for 30 min. at 5 W, the samples (20 μl containing 0.2 to 2.5 μg of antibiotic) were loaded into the slot at the cathodic side. Electrofocusing was performed using 10 W constant power and was completed after 3-31/2 hours with a final potential of 1400 V.
The pH values were determined by dividing a portion of the gel into 1 cm sections, and eluting the individual pieces at room temperature with 1 ml of 10 mM KCl prior to pH readings.
The isoelectric point of each antibiotic was determined by interpolation on a curve obtained by plotting pH values versus the distance from the anode.
Polyacrylamide gel was placed on a 3 mm layer of agar medium N. 1 inoculated with 1% of Bacillus subtilis ATCC 6633 spore (0.5 OD at 600 nm). After 10 min the gel was removed and the plate was incubated overnight at 37° C. and examined for inhibition zones. The contrast between the area of lysis and that of bacterial growth was enhanced by use of Phenolindo(2,6-dichlorophenol) 1% w/v (oxidation-reduction indicator).

[2] = system: S. pyogenes L 49; assay: In vivo test in mice experimentally infected with S. pyogenes L 49 (ED50); details: mice infected with S. pyogenes L 49; for ED50, route of administration os.: oral
[3] = system: S. faecalis ATCC 7080; assay: In vitro antibacterial activity, standard agar-dilution test (MIC); assay type: cell-based; details: inoculum about 10^4 CFU/ml, 18-24 h at 37° C.
Method: (§1) The culture medium ISOSENSITEST BROTH (Oxoid) and the colture medium TODD-[…] BROTH (Difco) are used for growing staphylococci and streptococci, respectively. Broth cultures are diluted so that the final inoculum is about 10^4 colony forming units/ml (CFU/ml).

[4] = system: S. pyogenes C 203; assay: as above; assay type: cell-based; details: inoculum about 10^4 CFU/ml, 18-24 h at 37° C.
Method: as §1

[5] = system: S. aureus Tour; assay: as above; assay type: cell-based; details: inoculum about 10^4 CFU/ml, 18-24 h at 37° C.
Method: as §1

[6] = system: Proteus vulgaris X 19H ATCC 881; assay: as above; assay type: cell-based; details: inoculum about 10^4 CFU/ml, 18-24 h at 37° C.
Method: as §1

[7] = system: E. coli SKF 12140; assay: as above; assay type: cell-based; details: inoculum about 10^4 CFU/ml, 18-24 h at 37° C.
Method: as §1

[8] = system: S. pneumoniae UC 41; assay: as above; assay type: cell-based; details: inoculum about 10^4 CFU/ml, 18-24 h at 37° C.
Method: as §1

[9] = system: S. epidermidis ATCC 12228; assay: as above; assay type: cell-based; details: inoculum about 10^4 CFU/ml, 18-24 h at 37° C.
Method: as §1

[10] = system: S. aureus ATCC 6538; assay: as above; assay type: cell-based; details: inoculum about 10^4 CFU/ml, 18-24 h at 37° C.
Method: as §1

[11] = system: Pseudomonas aeruginosa ATCC 10145; assay: as above; assay type: cell-based; details: inoculum about 10^4 CFU/ml, 18-24 h at 37° C.
Method: as §1

[12] = Acid-base titration (pK); assay type: physicochemical; details: for pK1 / pK2: acid-base titration in METHYLCELLOSOLVE/H2O 4:1 (v/v), 0.01N KOH, salt form per Table IV
Method: The following table (Table IV) reports the acid-base titration data of some representative compounds of the invention. The assays were carried out in METHYLCELLOSOLVE/H2 O, 4:1(v/v). A sample is dissolved in METHYLCELLOSOLVE/H2 O, 4:1(v/v) (10 umole in about 20 ml) and then 0.01N HCl (2 ml) is added and the mixture is titrated with 0.01N KOH in the same solvent mixture.

Isoelectric point (pI) [1]	MIC S. faecalis ATCC 7080 [3] [µg/mL]	MIC S. pyogenes C 203 [4] [µg/mL]	MIC S. aureus Tour [5] [µg/mL]	MIC Proteus vulgaris X 19H ATCC 881 [6] [µg/mL]	MIC E. coli SKF 12140 [7] [µg/mL]	MIC S. pneumoniae UC 41 [8] [µg/mL]	MIC S. epidermidis ATCC 12228 [9] [µg/mL]	MIC S. aureus ATCC 6538 [10] [µg/mL]	MIC Pseudomonas aeruginosa ATCC 10145 [11] [µg/mL]	pK1 [12]	pK2 [12]	pK3 (value between brackets) ([12]; between brackets: due to titration of the carboxylic function of the salifying acid)	Structure (SMILES)	ED50, route of administration os. [2] [mg/kg]	ED50, route of administration s.c [2] [mg/kg]
8.7	0.12 (≈ 0.0915 µM)	0.06 (≈ 0.0458 µM)	0.12 (≈ 0.0915 µM)	32 (≈ 24.4 µM)	8 (≈ 6.1 µM)	0.12 (≈ 0.0915 µM)	0.032 (≈ 0.0244 µM)	0.12 (≈ 0.0915 µM)	32 (≈ 24.4 µM)	6.30	8.0	–	CCN(CC)CCCNC(=O)C1NC(=O)C2NC(=O)C(NC(=O)C3NC(=O)C4NC(=O)C(Cc5ccc(c(Cl)c5)Oc5cc3cc(c5O)Oc3ccc(cc3Cl)C2O)NC(=O)C(N)c2ccc(O)c(c2)Oc2cc(O)cc4c2)c2ccc(O)c(c2)-c2c(O)cc(O)cc21 (stereo not drawn) [Compound 19]	> 300	0.18
8.7	0.25 (≈ 0.183 µM)	0.06 (≈ 0.0439 µM)	0.25 (≈ 0.183 µM)	32 (≈ 23.4 µM)	8 (≈ 5.85 µM)	0.12 (≈ 0.0878 µM)	0.063 (≈ 0.0461 µM)	0.6 (≈ 0.439 µM)	64 (≈ 46.8 µM)	6.1	8.3	–	CCCCN(CCCC)CCCNC(=O)C1NC(=O)C2NC(=O)C(NC(=O)C3NC(=O)C4NC(=O)C(Cc5ccc(c(Cl)c5)Oc5cc3cc(c5O)Oc3ccc(cc3Cl)C2O)NC(=O)C(N)c2ccc(O)c(c2)Oc2cc(O)cc4c2)c2ccc(O)c(c2)-c2c(O)cc(O)cc21 (stereo not drawn) [Compound 20]	> 300	0.72
8.8	0.12 (≈ 0.0927 µM)	0.06 (≈ 0.0463 µM)	0.12 (≈ 0.0927 µM)	64 (≈ 49.4 µM)	8 (≈ 6.18 µM)	0.12 (≈ 0.0927 µM)	0.016 (≈ 0.0124 µM)	–	64 (≈ 49.4 µM)	6.4	7.8	–	NC1C(=O)NC2Cc3ccc(c(Cl)c3)Oc3cc4cc(c3O)Oc3ccc(cc3Cl)C(O)C3NC(=O)C(NC(=O)C4NC(=O)C(NC2=O)c2cc(O)cc(c2)Oc2cc1ccc2O)c1ccc(O)c(c1)-c1c(O)cc(O)cc1C(C(=O)NCCN1CCCC1)NC3=O (stereo not drawn) [Compound 22]	> 300	1.6
–	0.12 (≈ 0.0893 µM)	0.06 (≈ 0.0446 µM)	0.12 (≈ 0.0893 µM)	> 128	32 (≈ 23.8 µM)	0.06 (≈ 0.0446 µM)	0.063 (≈ 0.0469 µM)	0.06 (≈ 0.0446 µM)	> 128	5.75	7.4	6.6	NC1C(=O)NC2Cc3ccc(c(Cl)c3)Oc3cc4cc(c3O)Oc3ccc(cc3Cl)C(O)C3NC(=O)C(NC(=O)C4NC(=O)C(NC2=O)c2cc(O)cc(c2)Oc2cc1ccc2O)c1ccc(O)c(c1)-c1c(O)cc(O)cc1C(C(=O)N1CCN(c2ccccn2)CC1)NC3=O (stereo not drawn) [Compound 24]	> 300	0.72
7.9	0.25 (≈ 0.17 µM)	0.12 (≈ 0.0815 µM)	0.5 (≈ 0.339 µM)	> 128	64 (≈ 43.4 µM)	0.25 (≈ 0.17 µM)	0.063 (≈ 0.0428 µM)	–	> 128	6.45	–	–	NC1C(=O)NC2Cc3ccc(c(Cl)c3)Oc3cc4cc(c3O)Oc3ccc(cc3Cl)C(O)C3NC(=O)C(NC(=O)C4NC(=O)C(NC2=O)c2cc(O)cc(c2)Oc2cc1ccc2O)c1ccc(O)c(c1)-c1c(O)cc(O)cc1C(C(=O)NCCCCCC(=O)NC1C(O)OC(CO)C(O)C1O)NC3=O (stereo not drawn) [Compound 31]	> 300	2.9

Second part, the compound before the results:

Structure (SMILES)	Isoelectric point (pI) [1]	MIC S. faecalis ATCC 7080 [3] [µg/mL]	MIC S. pyogenes C 203 [4] [µg/mL]	MIC S. aureus Tour [5] [µg/mL]	MIC Proteus vulgaris X 19H ATCC 881 [6] [µg/mL]	MIC E. coli SKF 12140 [7] [µg/mL]	MIC S. pneumoniae UC 41 [8] [µg/mL]	MIC S. epidermidis ATCC 12228 [9] [µg/mL]	MIC S. aureus ATCC 6538 [10] [µg/mL]	MIC Pseudomonas aeruginosa ATCC 10145 [11] [µg/mL]	pK1 [12]	pK2 [12]	pK3 (value between brackets) ([12]; between brackets: due to titration of the carboxylic function of the salifying acid)	ED50, route of administration os. [2] [mg/kg]	ED50, route of administration s.c [2] [mg/kg]
CC(=O)NC1C(OC2c3ccc(c(Cl)c3)Oc3cc4cc(c3O)Oc3ccc(cc3Cl)CC3NC(=O)C(N)c5ccc(O)c(c5)Oc5cc(O)cc(c5)C(NC3=O)C(=O)NC4C(=O)NC3C(=O)NC2C(=O)NC(C(=O)NCCCN(C)C)c2cc(O)cc(O)c2-c2cc3ccc2O)OC(CO)C(O)C1O (stereo not drawn) [Compound 13]	8.9	0.25 (≈ 0.168 µM)	0.12 (≈ 0.0807 µM)	0.12 (≈ 0.0807 µM)	> 128	64 (≈ 43.1 µM)	0.25 (≈ 0.168 µM)	0.06 (≈ 0.0404 µM)	0.12 (≈ 0.0807 µM)	> 128	–	–	–	> 300	2.2
CC(=O)NC1C(OC2c3ccc(c(Cl)c3)Oc3cc4cc(c3O)Oc3ccc(cc3Cl)CC3NC(=O)C(N)c5ccc(O)c(c5)Oc5cc(O)cc(c5)C(NC3=O)C(=O)NC4C(=O)NC3C(=O)NC2C(=O)NC(C(=O)NCCN2CCOCC2)c2cc(O)cc(O)c2-c2cc3ccc2O)OC(CO)C(O)C1O (stereo not drawn) [Compound 14]	8.0	0.5 (≈ 0.33 µM)	0.5 (≈ 0.33 µM)	0.5 (≈ 0.33 µM)	> 128	> 128	1 (≈ 0.66 µM)	0.12 (≈ 0.0792 µM)	–	> 128	5.3	6.8	–	–	–
CCOC(=O)CNC(=O)C1NC(=O)C2NC(=O)C(NC(=O)C3NC(=O)C4NC(=O)C(Cc5ccc(c(Cl)c5)Oc5cc3cc(c5O)Oc3ccc(cc3Cl)C2OC2OC(CO)C(O)C(O)C2NC(C)=O)NC(=O)C(N)c2ccc(O)c(c2)Oc2cc(O)cc4c2)c2ccc(O)c(c2)-c2c(O)cc(O)cc21 (stereo not drawn) [Compound 16]	7.8	1 (≈ 0.672 µM)	0.25 (≈ 0.168 µM)	1 (≈ 0.672 µM)	> 128	128 (≈ 86.1 µM)	1 (≈ 0.672 µM)	0.12 (≈ 0.0807 µM)	0.5 (≈ 0.336 µM)	> 128	–	–	–	> 300	5
CN(C)CCCNC(=O)C1NC(=O)C2NC(=O)C(NC(=O)C3NC(=O)C4NC(=O)C(Cc5ccc(c(Cl)c5)Oc5cc3cc(c5O)Oc3ccc(cc3Cl)C2O)NC(=O)C(N)c2ccc(O)c(c2)Oc2cc(O)cc4c2)c2ccc(O)c(c2)-c2c(O)cc(O)cc21 (stereo not drawn) [Compound 18]	8.9	0.12 (≈ 0.0935 µM)	0.06 (≈ 0.0468 µM)	0.12 (≈ 0.0935 µM)	16 (≈ 12.5 µM)	8 (≈ 6.23 µM)	0.12 (≈ 0.0935 µM)	0.016 (≈ 0.0125 µM)	0.06 (≈ 0.0468 µM)	32 (≈ 24.9 µM)	–	–	–	140	0.31
